Test results reported in patent US20110229572A1, “DELIVERY OF DRUG COMBINATIONS” (BIOCOMPATIBLES UK Limited, priority 2007, published 2011).
Where two headings read alike, the source gives them in different places. Values belong to the molecule of their own block, whether it stands above or below them.

How the values were obtained:
[1] = cited from earlier work
[2] = cited from earlier work; remark: listed apart in the source
[3] = P-4135F, cited from earlier work
[4] = cited from earlier work; remark: listed apart in the source
[5] = Loading of doxorubicin and irinotecan into the same high AMPS beads (depletion, UV); type: physicochemical; details: 1 ml high AMPS beads
Procedure: Five samples of 500-700 μm High AMPS beads of Example 1 were loaded with doxorubicin and irinotecan following different approaches:
Sample 1: 3.5 mL of irinotecan solution (Campto, Pfizer, 20 mg.mL^−1=70 mg) was loaded into 1 mL of beads for 48 h, to saturate all the sulfonate groups. Then, the depleted solution was removed and the loaded beads were washed with a known volume of deionised water to remove the non-bound drug. The amount of irinotecan loaded into the beads was calculated by depletion, as a difference between the initial and final amounts in the depleted solution and all washings measured by UV at a wavelength of 369 nm. One mL of doxorubicin (Dabur oncology-25 mg.ml^−1) was later added to the same beads and the loading profile determined. […] All solutions were measured by UV at a wavelength of 483 nm wavelength and the amount of drug loaded into the beads determined by depletion. After the beads were loaded and washed with deionised water, in a second step, 1.25 ml of irinotecan solution (20 mg.mL^−1=25 mg) was added to the same beads and the loading profile determined. […]
To determine the loading profiles of all samples, an aliquot of 50 μl was removed from each vial at time 5, 15, 30, 45 min after the addition of each drug, diluted as necessary and read by UV at 483 and 369 nm. […]

[6] = Elution of doxorubicin and irinotecan from the same beads into 200 ml PBS; type: physicochemical; details: all samples
Procedure: After being sized, all samples were eluted. Here, the remaining loading solutions were removed using a Pasteur pipette and the loaded beads were transferred to brown flasks containing 200 ml of PBS (Inverclyde Biologicals). At time 5, 15, 30, 45, 60, 90 min, 2 h, 4 h and 24 h, an aliquot of elution medium (4 ml) was removed and replaced with 4 mL of fresh PBS to maintain the volume. All samples were read by UV at 483 and 369 nm wavelengths, using the corresponding standard curves to calculate the amount eluted at each time point.
These two assumptions were made for all calculations. All samples were read at both 483 nm and 369 nm wavelengths. Using the absorbance and the standard curve of doxorubicin at 483 nm, the concentration of doxorubicin in each sample was calculated and using these concentrations and the standard curve of doxorubicin at 369 nm, the absorbance of doxorubicin at this wavelength was calculated.

[7] = Ibuprofen and irinotecan loading into high AMPS beads; type: physicochemical
Procedure: Drug loading: The drug loading procedure is shown in FIG. 9, in which the unloaded high AMPS beads were washed with DMSO to remove the water trapped within the hydrogel. A mixture of ibuprofen solubilised in DMSO and castor oil as crystallisation inhibitor were subsequently mixed with the bead slurry, and kept for about 10 minutes. Following the removal of the loading solution, saline was used to wash the loaded beads until no drug particles nor large oil droplets were observed. The irinotecan loading was achieved by simply mixing the ibuprofen-loaded beads with irinotecan solution (10 mg/mL) by roller-mixing overnight. The final loaded beads were kept in the water solution as product.
1). Ibuprofen. The content of loaded ibuprofen was determined by an HPLC method. […] The collected DMSO solution was topped to the mark in a 10 ml volumetric flask, and the concentration of ibuprofen was measured by HPLC. […] The content of irinotecan in loaded beads was measured by depletion method. […] The loading solution was diluted with water and measured by UV at 369 nm. Compared to the standard curve, the concentration of irinotecan left in loading solution can be calculated.
To determinate the concentration of each component in a combined drug solution, the standard curves for absorption of predetermined concentrations of ibuprofen and irinotecan at 263, 272 and 369 nm in water were measured. […]

[8] = Elution of ibuprofen-irinotecan-loaded beads into PBS; type: physicochemical; details: after 5 hours, irinotecan alone, combination comparable
Procedure: The elution of ibuprofen-irinotecan-loaded beads was carried out by mixing 0.24 ml beads with 200 ml PBS (Inverclyde, Bellshill, UK) and roller-mixed on a roller mixer. At certain time point, the solution (5 ml) was taken out for concentration determination by UV and same volume of fresh PBS was added to keep a sink condition.

[9] = Loading of doxorubicin into ibuprofen-loaded low AMPS beads (depletion); type: physicochemical
Procedure: Ibuprofen and doxorubicin solutions were loaded into low AMPS beads simultaneously. In order to achieve this, one sample of 1 ml of 500-700 μm beads was loaded with ibuprofen (according to examples in WO2004073688). The excess packaging solution was removed using a Pasteur pipette and 2 ml of doxorubicin solution (5 mg.ml^−1) were added. After 24 h, a 50 μl aliquot was removed from the depleted solution and measured by UV at 263 nm and 483 nm. The amount of doxorubicin loaded into beads was calculated by depletion, as a difference between the initial and final amounts in the depleted solution (calculations explained below).
These two assumptions were made for all calculations. All samples were read at both wavelengths (263 nm and 483 nm). Using the absorbance at 483 nm the concentration of doxorubicin in each sample was calculated, then using these concentrations and the standard curve of doxorubicin at 263 nm, the absorbance of doxorubicin at 263 nm was calculated. By subtracting this value from the total absorbance at 263 nm, the concentration of ibuprofen, was calculated using the ibuprofen standard curve.
Initially, lyophilised beads as described in WO2004073688 were loaded with ibuprofen/ethanol solution by solvent evaporation and then rehydrated with water and autoclaved for 15 min at 121° C. […]

[10] = Rapamycin and doxorubicin loading into high AMPS beads by two methods; type: physicochemical; details: Method 2
Procedure: Unloaded high AMPS bead slurry 1 ml was loaded with doxorubicin solution (5 ml of 10.07 mg/ml, target loading 50 mg/ml Bead) overnight. The doxorubicin-loaded beads were washed with 1 ml DMSO 5 times to remove extra water, and 1 ml 60 mg/mL rapamycin DMSO solution was mixed with the doxorubicin beads for about 30 min. Subsequently, following removal of extra rapamycin DMSO solution, the beads were washed with 5 ml saline until no white drug particles were observed.
1 ml Bead slurry was washed with 1 mL DMSO 5 times and mixed with 1 ml 60 mg/ml rapamycin DMSO solution for 30 min. The loaded beads were then washed with 5 ml saline until no further white drug particles were observed. […]
Doxorubicin loading test: The doxorubicin loading was measured by depletion method in either water or DMSO solution. The loading solution was taken and diluted 10 times and measured by UV at 483 nm to determine the concentration of doxorubicin residue in solution. […] The concentration of rapamycin was determined by UV at 279 nm. […]
Doxorubicin loss determination: The doxorubicin loss during DMSO washing of loaded beads before further loading of rapamycin (Method 2) was determined by measuring the accumulated DMSO washing solution in a volumetric flask at 483 nm. […]
Rapamycin and doxorubicin standard curve: The maximum absorbance of rapamycin is at wavelength 279 nm, which is overlapped with doxorubicin absorbance. […]

HepG2 cells = test: MTS cell viability assay with drug loaded beads; type: cell-based, human; details: Example 8, MTS, 72 hr exposure
Procedure: An MTS assay was also conducted on the wells. At 72 hrs, the media from all wells was cautiously removed and each well washed three times with 200 μl sterile PBS. After adding 100 μl PRF media to each well, 20 μl of the prepared MTS solution (Promega) was also added. After a two hours incubation (37° C., 5% CO2) the plate was read at 490 nm using the plate reader and like the LDH assay, if the reading was too high the samples were diluted (75 μl PRF media: 75 μl samples).
Example 7 was repeated substantially as described, with an extended number of beads of one of the drugs. The results of the MTS assay, i.e. showing cell viability % (log scale) of HepG2 cells after 72 hr exposure, concluded as the mean of 6 samples, is shown in FIG. 19.
An MTS assay was used to assess the synergistic cytotoxic effects of dual loaded beads on HepG2 and PSN1 cells. The rapamycin loaded beads and the doxorubicin loaded beads were the same as those described in Example 7. The dual loaded doxorubicin and rapamycin loaded beads were loaded and analysed as described in Example 4 Method 2 using a 1 ml 60 mg/ml rapamycin solution and 1 ml 37.5 mg/ml doxorubicin solution.
The assay was prepared as described in Example 7 using HepG2 cells and additional plates of PSN1 cells for analysis.
An MTS assay (described in example 7) was conducted after 24, 48 and 72 hrs exposure. […]

Molecule: O=c1[nH]cc(F)c(=O)[nH]1 [Sample 5-FU, 5-fluorouracil]
encapsulation efficiency ([1]; PLGA microparticles): 19%
encapsulation efficiency ([1]; encapsulated with Paclitaxel): 30%
encapsulation rate ([2]; Eudragit P-4135F): 48.3±2.0%
encapsulation rate ([2]; Eudragit RS100): 60.3±9.7%
5-FU release ([3]; pH 6.8, within 4 h): lower than 25%
time of nearly immediate release ([3]; pH 7.4): ≤ 15 min

Molecule: heparin
initial burst release from the co-matrix ([4]; uncoated): 32.7%
initial burst release from the co-matrix ([4]; with polyethylene glycol coatings, for 24 hr): 25.4%

Molecule: Nc1nc2c(c(=O)[nH]1)N(C=O)C(CNc1ccc(C(=O)N[C@@H](CCC(=O)O)C(=O)O)cc1)CN2 (some centres unmarked) [LV, leucovorin]
encapsulation rate ([2]; Eudragit P-4135F): 55.4±2.7%
encapsulation rate ([2]; Eudragit RS100): 81.4±8.6%
initial drug loss ([3]; pH 6.8): about 60%
time to complete release ([3]; pH 6.8): ≤ 2 h

maximum loading capacity of the beads [5]: 52 mg
irinotecan released ([6]; in <4 h): > 99 % mg
maximum irinotecan loading capacity for unloaded beads [7]: 50 to 60 mg/mL
irinotecan loading efficiency ([7]; unloaded beads, below maximum loading capacity): above 98%
irinotecan eluted [8]: ~100%
Molecule: CCc1c2c(nc3ccc(OC(=O)N4CCC(N5CCCCC5)CC4)cc13)-c1cc3c(c(=O)n1C2)COC(=O)[C@]3(O)CC [irinotecan]

maximum loading capacity of the beads [5]: ~40 mg
doxorubicin released ([6]; in 24 h): < 25%
maximum amount of doxorubicin loaded into ibuprofen loaded beads ([9]; 1 ml low AMPS beads, doxorubicin solution 5 mg/ml, 24 h): 8.3 mg
maximum capacity of low AMPS beads for doxorubicin ([9]; loaded with this drug alone): ~14 mg/mL
doxorubicin loss during DMSO washing before rapamycin loading [10]: about 6.71 mg/ml
Molecule: COc1cccc2c1C(=O)c1c(O)c3c(c(O)c1C2=O)C[C@@](O)(C(=O)CO)C[C@@H]3O[C@H]1C[C@H](N)[C@H](O)[C@H](C)O1 [doxorubicin]
cytotoxicity when eluted individually (HepG2 cells): more cytotoxic to the cells than rapamycin
